Experimental data from US20060057673A1, “Epitope analogs” (priority 2004, published 2006).
Where a SMILES comes first, the peptide text is derived from it. [ ]: non-standard residue; d: D form. Cha = N[C@@H](CC1CCCCC1)C(=O)O

Assays:
HLA-A*0201 [1] = target: T1, HLA-A*0201 (Homo sapiens, UniProt P04439, D140Y/D185E/D98H/E176V/E277Q/G131W/G231S/I119V/I121R/I166T/I218V/L300P/L318F/N151K/N90K/P208A/P217A/Q86G/Q94H/R138H/R169H/T345S); experiment: Peptide binding using T2 cells; set-up: endogenous in cells; host or cells: T2 cells; conditions: T2 cells pulsed overnight at 37° C.; peptide concentration giving 50% of saturation signal; N/B printed, not defined
HLA-A*0201 [2] = target: T1, HLA-A*0201; experiment: iTopia binding assay (% binding); conditions: % binding compared to positive control melan-A26-35 A27L
Source text: Avidin-coated microtiter plates containing class I monomer loaded with a so-called placeholder peptide were used to evaluate peptide binding, affinity and off-rate. The monomer-coated plates were supplied as part of the iTopia Epitope Discovery System Kit (Beckman Ciulter, Inc., San Diego, Calif., USA). Assay buffers, anti-MHC-FITC mAb and beta2-microglobulin and control peptides were also supplied with the kits.
This assay measures the ability of individual peptides to bind HLA molecules under standardized optimal binding conditions. Monomer-coated plates were first stripped, releasing the placeholder peptide and leaving only the MHC heavy chain bound to the plate. Test peptides were then introduced under optimal folding conditions, along with the anti-MRC-FITC mAb. Plates were incubated for 18hrs at 21° C. The anti-MHC-FITC mAb binds preferentially to a refolded MHC complex. Therefore, the fluorescence intensity resulted from each peptide was related to the peptide's ability to form complex with MHC molecule. Each peptide's binding was evaluated relative to the positive control peptide provided in the kit, and the results were expressed ‘% binding’.

[3] = tested on: target cells loaded with native PRAME425-433 peptide; experiment: In vivo cytotoxicity against native PRAME peptide coated splenocytes (CFSE); set-up: species or system HHD transgenic mice; conditions: plasmid prime, peptide boost

Half-maximal Binding (mM) (HLA-A*0201 [1]) | Compound | % binding relative to native PRAME425-433 (HLA-A*0201 [2]) | In vivo cytotoxicity against native PRAME epitope [3]
N/B | CC[C@H](C)[C@H](NC(=O)[C@H](CCCCN)NC(=O)[C@H](CCC(=O)O)NC(=O)[C@H](CO)NC(=O)[C@H](Cc1cccc2ccccc12)NC(=O)[C@@H](N)CCCCN)C(=O)N[C@@H](Cc1ccccc1)C(=O)N[C@@H](Cc1ccc(O)cc1)C(=O)N[C@H](C(=O)O)C(C)C [SSX2 41-49 (A42(Nal-1)), KNal-1SEKIFYV] | – | –
N/B | CC[C@H](C)[C@H](NC(=O)[C@H](CCCCN)NC(=O)[C@H](CCC(=O)O)NC(=O)[C@H](CO)NC(=O)[C@H](C)NC(=O)[C@@H](N)CC1CCCCC1)C(=O)N[C@@H](Cc1ccccc1)C(=O)N[C@@H](Cc1ccc(O)cc1)C(=O)N[C@H](C(=O)O)C(C)C [SSX2 41-49 (K41(Cha))] (H-[Cha]ASEKIFYV-OH) | – | –
– | Phe P1 analog: PRAME425-433 (SLLQHLIGL) analog, Phe for the Ser at the P1 position (FLLQHLIGL) | exceeded that range on the high side | capable of expanding the immunity against the native epitope
